These results are taken from patent publication US8785399B2, “Antibacterial peptides” (Spiderbiotech S.R.A., priority 2008, dated 2014).

For one series, the system named is fresh human erythrocytes. Type of series: cell-based. The method, then: The haemolysis assay was adapted from the method of Shin et al. (Ref. 12). Fresh human erythrocytes were used to test the haemolytic activities of the peptides. Whole blood was collected in a sterile tube with a 4% w/v sodium citrate solution (in a 1:10 ratio sodium citrate:whole blood), put in ice and centrifuged at 1000 g for 5 minutes at 4° C.
The supernatant, including the leucocytes above the erythrocyte pellet, was removed carefully and discarded. Intact erytrocytes were washed three times with 2 volumes (1 mL) of prechilled pyrogen-free saline (PBS 1×). Erythrocyte suspensions were adjusted to 0.8% (8 ul in 1 mL or 160 uL in 20 mL) of PBS 1×. […]
Subsequently, intact erythrocyte were pelletted by centrifugation at 1000 g for 5 minutes at 4° C. One hundred microliters of supernatant from each well was transferred accordingly to a new 96-well microtiter plate, and the amount of haemoglobin released into the supernatant was determined by reading the absorbance at 414 nm against a reference wavelength of 490 nm. […]
The haemolysis was determined by two different assays as described in Example VIII. In Tables 7-9 all haemolysis percentage values, determined by UV-VIS spectrophotometry, are reported. […]

The test system of the next series is E. coli ATCC 25922. Description: MIC by broth microdilution, E. coli reference strain. Type of series: cell-based, Escherichia coli. The conditions noted are these: Table 4. As to the method: (§1) Determination of MIC. MICs were determined in MHB by the broth microdilution methodology, according to CLSI procedure (formerly NCCLS, Ref. 11) by using final bacterial inocula of 1-5×10^5 CFU/mL. Assays were performed in sterile 96-well microtiter plates with round bottom wells (Corning Costar). Plates were incubated at 37° C. and read after 20-24 h. MIC was defined as the lowest drug concentration causing complete suppression of visible bacterial growth. All compounds were dissolved in (5% v/v DMSO).
All natural aminoacids have been divided into three groups based on their chemical-physical properties. A total amount of 27 minilibraries, each one containing six peptide in equimolar amounts, were obtained and assayed against E. coli ATCC 25922 as reference strain. MIC (Minimum Inhibitory Concentration) is defined as the lowest concentration inhibiting 100% of visible growth.
In general terms: Broth dilution looks for growth in wells or tubes with falling amounts of substance.

Series [1] deals with Pseudomonas aeruginosa ATCC 27853. Description: MIC by broth microdilution, P. aeruginosa reference strain. Type of series: cell-based. The following applies: Table 4. As to the method: as §1
These peptides were synthesized individually, in order to assay the activity of each sequence.

For another series, the system named is Acinetobacter baumannii. The format is cell-based. As to the method: as §1
(§2) These compounds were tested against a large panel of Gram-negative clinical isolates and the relative MIC values were reported in Table 5 (parts 1-3)

The next series has as its system Acinetobacter iwoffi. Type of series: cell-based. As to the method: as §1, §2
A further series deals with Enterobacter cloacae. The format is cell-based. The method, then: as §1, §2
For the next series, the system named is Escherichia coli. Type of series: cell-based. As to the method: as §1, §2
The test system of a further series is Klebsiella oxytoca. Type of series: cell-based. The method, then: as §1, §2
The test system of a further series is Klebsiella pneumoniae. The format is cell-based. As to the method:
as §1, §2

The test system of another series is Proteus mirabilis. The format is cell-based. The method, then: as §1, §2
A further series relates to Pseudomonas aeruginosa. The format is cell-based. The method, then: as §1, §2
A further series relates to Serratia marcescens. Type of series: cell-based. The method, then:
as §1, §2

The subject of series [2] is Stenotrophomonas maltophilia. Type of series: cell-based. As to the method:
as §1, §2

Another series deals with Shigella. The series is described as follows: MIC vs clinical isolates, Shigella. Type of series: cell-based. The conditions noted are these: Shigella strain ND024108. The method, then: as §1, §2
The test system of another series is E. coli EC47. Type of series: cell-based, Escherichia coli. As to the method: Test and reference compounds, ID24 and colistin sodium methanesufonate (CMS) respectively, were dissolved in 0.1 M phosphate-buffered saline pH 6.9, at the required drug concentrations. Solutions were made just before administration, and stored at 4° C. until the end of scheduled treatments, ID24 MIC value on E. coli EC47 strain is 2 ug/mL [MIC was determined by the broth microdilution method in Muller Hinton medium (NCCLS guidelines), using bacterial inoculum of approximately 10^5 CFU/mL].

A short description of series [3]: In vitro cytotoxicity, MTT dye reduction assay, HeLa. Type of series: cell-based. The following applies: human, HeLa cells (human epithelial carcinoma). As to the method:
(§3) HeLa (Human epithelial carcinoma cell line), HepG2 (Human hepatocellular liver carcinoma cell line) and HaCat (human keratinocyte) were grown to confluence and then plated at 20,000, 12,500 and 30,000 cells per well (the optimal cell count for each cell line has been previously determined). After 24 hours, ID24 in DMEM without FBS was added at concentration ranging from 800 and 100 ug/ml. As positive controls 100 uL of cells washed with medium without serum that represent 100% viability and, as negative, 100 uL medium without serum were also added. After 24 hours of incubation at 37° C. in a 5% v/v CO2 atmosphere, 10 ul MTT Reagent [3-(4,5-dimethylthiazol-2-yl)-2,5-diphenyl […] bromide, final concentration 0.5 mg/mL) was added to each well and incubated for 2 to 4 hours. Solubilization of formazan, formed by metabolic reduction of MTT, was obtained using the stop mix solution (10% w/v sodium dodecyl sulphate, 45% v/v dimethyl formamide, adjusted to pH 4.5 with glacial acetic acid). The plates were read in a microplate spectrophotometer. (Biorad, Benchmark plus). Cultures exposed to ID24 or exposed to the medium alone were measured spectrophotometrically at dual wave-length (565-650 nm). The experiment was carried out in three replicates.
(In general: Formazan colour is commonly taken as a measure of viable cells.)

Series [4] is described as follows: In vitro cytotoxicity, MTT dye reduction assay, HepG2. The format is cell-based. The following applies: human, HepG2 cells (human hepatocellular liver carcinoma). The method, then:
as §3

A short description of series [5]: In vitro cytotoxicity, MTT dye reduction assay, HaCat. Type of series: cell-based. The following applies: human, HaCat cells (human keratinocytes). The method, then: as §3
The subject of series [6] is P. aeruginosa ATCC 27853 24-hours biofilm. The format is cell-based, Pseudomonas aeruginosa. The following applies: ATCC 27853, 4 h. As to the method: An exponential phase inoculum of Pseudomonas aeruginosa ATCC 27853 of approximately 1×10^7 CFU/mL was poured into a reagent reservoir of Innovotech plates for MBEC™ High-throughput assay (Innovotech Inc., Edmonton, Canada). 22 mL of inoculum were added to the trough and the peg lid was placed onto. The device was placed on the shaking incubator at 80 rpm in a humidified box at 37° C.
After 24 hours of incubation, the pegs were rinsed into a plate containing 200 uL of physiological solution to remove loosely adherent planktonic cells from the biofilm and then were put in a microplate containing 200 uL of different antibiotic solutions serially diluted in TSB.
Following 4 hours of contact and incubation at 37° C. on the shaking incubator, the peg lid was removed from the trough and submersed in a rinse plate for 2 minutes.
Then a new microtitre with saline solution containing the sample pegs was put in the tray of the ultrasonic cleaner and sonicated for 30 minutes to disrupt biofilm from the surface of the 96 pegs.
Duplicate 0.01 or 0.005 mL aliquots of ten fold serial dilution of each well, were spread on MHA plate and colonies were read for viable cell counting after 24 hours of incubation.

The next series is described as follows: In vivo acute toxicity. The conditions noted are these: for symptoms and behavioural alterations (Irwin Test): female CD1 mice. Set-up: species or system CD1 mice. The method, then: 9-10 weeks female CD1 mice (Charles River Lab. Italia s.r.l. Via Indipendenza, 11-23885 Calco (LC), Italy), weighing on average 28.23 g on the day of experiment were used. Mice were housed for 3 days in a temperature and humidity controlled room before starting experiment, and were fed with standard laboratory chow and water ad libitum.
ID24 was dissolved and sonicated in 0.9% w/v NaCl sterile solution (Sigma-Aldrich) for human administration at the dose concentrations 20 and 40 mg/kg. Compound preparation was conducted just before administration.
Two doses of ID24 were administered with a single intraperitoneal injection to mice: 20 mg/kg and 40 mg/kg. Five animals were treated with each dose of antibiotic. Adverse symptoms were monitored daily for 7 days after injection.
Survivals and clinical/behavioural signs were recorded daily for 14 days.
Main behavioural parameters and clinical signs provided by Irwin Test (Ref. 13).

Setting [7] is: IP administration, up to the highest dose of 40 mg/kg.

Values after ≈ are worked out from the molar mass of the structure shown. Positions of bridges follow the written chain, without caps; N, C: chain ends. Non-standard residues stand in square brackets, D forms with d. Residues, ends and D or L forms follow the SMILES beside them. Chains are numbered I, II in the order given. Aoc = NCCCCCCCC(=O)O A value given as a limit tells only on which side of the number the result lay.

For the molecule Triton X 100, the “Haemolysis, %” value with fresh human erythrocytes was determined as 100.0%.
One may read the MIC as the lowest concentration found to suppress growth. High values mean a less susceptible organism, low ones a more susceptible organism. One may read the CC50 as the concentration giving 50% cytotoxicity. Regarding `CC[C@H](C)[C@H](NC(=O)[C@H](CCCCN)NC(=O)[C@H](CCCCN)NC(=O)[C@@H](N)Cc1c[nH]c2ccccc12)C(=O)N[C@@H](CCCNC(=N)N)C(=O)N[C@H](C(=O)N[C@@H](CCCNC(=N)N)C(=O)N[C@@H](CC(C)C)C(=O)N[C@@H](CO)C(=O)N[C@@H](C)C(=O)NCCCC[C@H](NC(=O)[C@H](C)NC(=O)[C@H](CO)NC(=O)[C@H](CC(C)C)NC(=O)[C@H](CCCNC(=N)N)NC(=O)[C@@H](NC(=O)[C@H](CCCNC(=N)N)NC(=O)[C@@H](NC(=O)[C@H](CCCCN)NC(=O)[C@H](CCCCN)NC(=O)[C@@H](N)Cc1c[nH]c2ccccc12)[C@@H](C)CC)C(C)C)C(=O)NCCCCCCCC(N)=O)C(C)C` [ID24, (H-W-KKIRVRLSA)2-Lys-8-Aoa-NH2] (I: H-WKKIRVRLSAK[Aoc]-NH2 / II: H-WKKIRVRLSA; amide I:11-II:C), in the series on E. coli ATCC 25922, the “MIC (ug/mL) E. coli” value came to 4 µg/mL (≈ 1.45 µM). In series [1], the “MIC (ug/mL) P. aeruginosa” value worked out at 32 µg/mL (≈ 11.6 µM). The “MIC Range” value against Acinetobacter baumannii is 8 to 16 µg/mL; with Enterobacter cloacae, 4 to 16 µg/mL; in the series with Escherichia coli it was 4 to 32 µg/mL; with Klebsiella oxytoca, 16 to 32 µg/mL; against Klebsiella pneumoniae, 4 to 16 µg/mL; in the series with Proteus mirabilis, more than 128 µg/mL. In addition, the “MIC Range” value lay within 8 to 16 µg/mL in the series on Pseudomonas aeruginosa and 8 to 32 µg/mL in series [2]. Besides, the MIC against Acinetobacter iwoffi was 32 µg/mL (≈ 11.6 µM); in the series on Proteus mirabilis it was more than 128 µg/mL; in the series on Serratia marcescens it was more than 128 µg/mL; against Shigella, 4 µg/mL (≈ 1.45 µM). Further, the “MIC value on E. coli EC47 strain” value against E. coli EC47 was determined as 2 µg/mL (≈ 0.724 µM). In addition, the CC50 at 24 h stood at 156 nM in series [3]; 430 µg/mL in series [3] (HeLa, 24 hours incubation, MTT, read-out: CC50 ID24); 78 nM in series [4]; 215 µg/mL in series [4] (HepG2, 24 hours incubation, MTT, read-out: CC50 ID24); 160 nM in series [5]; 442 µg/mL in [5] (HaCat, 24 hours incubation, MTT, read-out: CC50 ID24). Moreover, in [6], the “percentage of inhibition of bacteria biofilm” value is listed as 88.7-99.9%. Besides, the “symptoms and behavioural alterations (Irwin Test)” value in the series “In vivo acute toxicity” (20 mg/kg single intraperitoneal injection) and in “In vivo acute toxicity” (40 mg/kg single intraperitoneal injection) was “no behavioural alterations” each time. Also, the adverse symptoms entry in “In vivo acute toxicity” (setting [7]) is reported as “No adverse symptoms”. Besides, in “In vivo acute toxicity” (setting [7]), the deaths entry is listed as “no deaths”.
